Experimental findings from patent US8242275B2, “Bicyclic pyrazole compounds as antibacterial agents” (Janssen Pharmaceutica NV, priority 2005, dated 2012) are described below.

Converted amounts (≈) assume the structure as drawn. Where a name gives a salt, the structure may show the parent alone. Read-outs that look alike come from different tables or passages of the source.

For one assay, the system named is E. coli ATCC25922. The assay can be described thus: In vitro antibacterial activity (MIC assay), broth microdilution. Particulars: Escherichia coli. It counts as cell-based. In a few lines: (§1)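 Bacteria at roughly 5×10^5 CFU/mL final were grown 16–24 h at 35° C in wells holding 2-fold serial dilutions (11 points) of compound prepared in 100% DMSO, following NCCLS M7-A5. MIC, in μg/mL, is the concentration that stops visible growth relative to untreated wells.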

For another assay, the system named is S. aureus ATCC13709. The description is as above. In kind it is cell-based. In a few lines:
as §1

A further assay relates to S. pneumoniae ATCC49619. The assay is described as above. It counts as cell-based. In a few lines: as §1
For the next assay, the system named is CipR MRSA OC4222. The assay can be described thus: Resistant strains assay (broth microdilution MIC). It counts as cell-based. Particulars: Staphylococcus aureus, read-out: MIC, Column G. The source says:
(§2) Testing protocols followed NCCLS methodology for broth microdilution assays.

The subject of assay [1] is E. coli KL-16 (GSC strain 4245). Put plainly: In vitro antibacterial activity (MIC assay), broth microdilution. It counts as cell-based. Particulars: Escherichia coli. In a few lines:
as §1

The target in the next assay is T1, E. coli DNA gyrase (Escherichia coli, UniProt P0AES4+P0AES6).
T1 construct: purchased John Innes Enterprises Ltd. (John Innes Centre, UK)
Put plainly: DNA gyrase inhibition assay (supercoiling). It counts as biochemical. Particulars: E. coli DNA gyrase supercoiling, visual inspection of gels; read-out: DNA Gyrase IC50 (converted). In a few lines:
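Agarose-gel (1.0%, ethidium-stained) readout of supercoiled versus relaxed pBR322 after 30 min at 37° C. Each reaction held 250 ng DNA, 0.2 unit enzyme, 1 mM ATP, 4 mM MgCl2, 24 mM KCl in 35 mM Tris-HCl pH 7.5, and compound at 0.5% DMSO final.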

The target in the next assay is T2, E. coli topoisomerase IV (Escherichia coli, UniProt P0AFI2+P20083).
T2 construct: purchased John Innes Enterprises Ltd. (John Innes Centre, UK)
Put plainly: Topoisomerase IV inhibition assay (relaxation). In kind it is biochemical. Particulars: E. coli topoisomerase IV relaxation, visual inspection of gels; read-out: Topoisomerase IV IC50 (converted). In a few lines: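 Relaxation of 300 ng supercoiled pBR322 by 0.9 unit enzyme in HEPES-KOH pH 7.6 with potassium glutamate, Mg(OAc)2, DTT, tRNA, 2 mM ATP and BSA; final DMSO 0.5%. Reactions ran 45 min at 37° C. Products resolved on 1.0% agarose gels and stained with ethidium bromide.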

In the next assay the test system is MSSA ATCC 29213. Put plainly: Resistant strains assay (broth microdilution MIC). It counts as cell-based. Particulars: Staphylococcus aureus, read-out: MIC, Column B. As to the method:
(§3) Compounds of the present invention were tested for activity against susceptible and resistant bacterial strains in vitro, and activity was compared to known anti-bacterial agents. Testing protocols followed NCCLS methodology for broth microdilution assays. MIC values in μg/mL are presented in Table 3 for the following strains: Column A: MSSA ATCC13709 (Smith); Column B: MSSA ATCC 29213; Column C: MRSA OC3726 (COL); Column D: MRSA OC2878.

Another assay concerns MSSA ATCC13709 (Smith). Put plainly: Resistant strains assay (broth microdilution MIC). It counts as cell-based. Particulars: Staphylococcus aureus. The procedure: as §3
The next assay deals with CipR MRSA OC4159. Put plainly: Resistant strains assay (broth microdilution MIC). In kind it is cell-based. Particulars: Staphylococcus aureus, read-out: MIC, Column F.
From the text: as §2

The next assay has as its system CipR MRSA OC5273. Put plainly: Resistant strains assay (broth microdilution MIC). It counts as cell-based. Particulars: Staphylococcus aureus, read-out: MIC, Column H.
From the text: as §2

A further assay has as its system MRSA OC2878. The assay can be described thus: Resistant strains assay (broth microdilution MIC). Particulars: Staphylococcus aureus; MRSA OC2878; read-out: MIC, Column D. It counts as cell-based.
From the text: as §2

The next assay concerns MRSA OC3726 (COL). Put plainly: Resistant strains assay (broth microdilution MIC). In kind it is cell-based. Particulars: Staphylococcus aureus; MRSA OC3726 (COL); read-out: MIC, Column C.
From the text: as §2

A further assay concerns CipR MRSA OC3946. Put plainly: Resistant strains assay (broth microdilution MIC). Particulars: Staphylococcus aureus; CipR MRSA OC3946; read-out: MIC, Column E. It counts as cell-based. As to the method:
as §3
MIC values in μg/mL are presented in Table 4 for the following strains: Column E: CipR MRSA OC3946; Column F: CipR MRSA OC4159; Column G: CipR MRSA OC4222; Column H: CipR MRSA OC5273.

Setting [2] is: obtained with E. coli ATCC25922, read-out: E. coli MIC, data marked (*).
Where [3] appears, read: Staphylococcus aureus, ATCC13709; read-out: S. aureus ATCC13709 MIC.
The mark [4] stands for this setting: Streptococcus pneumoniae, ATCC49619; read-out: S. pneumoniae ATCC49619 MIC.

T2 sequence (P0AFI2 whole entry): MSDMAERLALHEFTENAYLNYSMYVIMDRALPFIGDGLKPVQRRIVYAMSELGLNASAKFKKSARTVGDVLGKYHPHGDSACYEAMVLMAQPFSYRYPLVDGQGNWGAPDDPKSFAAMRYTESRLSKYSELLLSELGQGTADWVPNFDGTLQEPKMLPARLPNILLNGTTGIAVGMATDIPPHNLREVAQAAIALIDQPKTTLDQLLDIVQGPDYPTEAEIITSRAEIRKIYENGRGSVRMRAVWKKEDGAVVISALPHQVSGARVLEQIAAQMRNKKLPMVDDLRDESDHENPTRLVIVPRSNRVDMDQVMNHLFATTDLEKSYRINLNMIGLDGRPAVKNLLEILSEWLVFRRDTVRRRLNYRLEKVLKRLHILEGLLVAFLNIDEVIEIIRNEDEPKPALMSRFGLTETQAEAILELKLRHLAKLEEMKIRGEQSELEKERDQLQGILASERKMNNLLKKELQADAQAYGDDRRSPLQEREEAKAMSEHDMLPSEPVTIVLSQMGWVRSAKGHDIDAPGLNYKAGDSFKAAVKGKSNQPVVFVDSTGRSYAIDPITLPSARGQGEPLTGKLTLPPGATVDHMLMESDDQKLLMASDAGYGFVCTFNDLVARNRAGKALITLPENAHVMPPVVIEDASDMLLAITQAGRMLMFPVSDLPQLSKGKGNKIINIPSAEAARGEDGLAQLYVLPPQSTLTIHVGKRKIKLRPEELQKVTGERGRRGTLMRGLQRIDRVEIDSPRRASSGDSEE
T2 sequence (P20083 whole entry): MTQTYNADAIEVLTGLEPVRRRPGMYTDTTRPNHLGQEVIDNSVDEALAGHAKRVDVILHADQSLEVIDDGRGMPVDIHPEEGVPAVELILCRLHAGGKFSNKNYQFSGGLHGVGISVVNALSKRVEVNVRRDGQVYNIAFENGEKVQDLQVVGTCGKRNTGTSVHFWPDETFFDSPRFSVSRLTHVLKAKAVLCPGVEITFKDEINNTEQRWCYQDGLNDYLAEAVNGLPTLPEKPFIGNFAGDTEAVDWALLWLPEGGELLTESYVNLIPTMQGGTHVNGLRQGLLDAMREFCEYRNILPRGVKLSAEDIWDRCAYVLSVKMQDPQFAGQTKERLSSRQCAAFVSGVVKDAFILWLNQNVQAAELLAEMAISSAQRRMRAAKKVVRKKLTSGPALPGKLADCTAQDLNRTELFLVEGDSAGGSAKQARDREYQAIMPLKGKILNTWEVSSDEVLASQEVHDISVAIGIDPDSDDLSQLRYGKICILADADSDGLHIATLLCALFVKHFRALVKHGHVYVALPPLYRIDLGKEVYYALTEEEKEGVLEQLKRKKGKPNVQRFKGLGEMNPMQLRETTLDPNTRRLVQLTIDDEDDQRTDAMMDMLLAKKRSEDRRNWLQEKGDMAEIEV
T1 sequence (P0AES4 whole entry, one chain of several): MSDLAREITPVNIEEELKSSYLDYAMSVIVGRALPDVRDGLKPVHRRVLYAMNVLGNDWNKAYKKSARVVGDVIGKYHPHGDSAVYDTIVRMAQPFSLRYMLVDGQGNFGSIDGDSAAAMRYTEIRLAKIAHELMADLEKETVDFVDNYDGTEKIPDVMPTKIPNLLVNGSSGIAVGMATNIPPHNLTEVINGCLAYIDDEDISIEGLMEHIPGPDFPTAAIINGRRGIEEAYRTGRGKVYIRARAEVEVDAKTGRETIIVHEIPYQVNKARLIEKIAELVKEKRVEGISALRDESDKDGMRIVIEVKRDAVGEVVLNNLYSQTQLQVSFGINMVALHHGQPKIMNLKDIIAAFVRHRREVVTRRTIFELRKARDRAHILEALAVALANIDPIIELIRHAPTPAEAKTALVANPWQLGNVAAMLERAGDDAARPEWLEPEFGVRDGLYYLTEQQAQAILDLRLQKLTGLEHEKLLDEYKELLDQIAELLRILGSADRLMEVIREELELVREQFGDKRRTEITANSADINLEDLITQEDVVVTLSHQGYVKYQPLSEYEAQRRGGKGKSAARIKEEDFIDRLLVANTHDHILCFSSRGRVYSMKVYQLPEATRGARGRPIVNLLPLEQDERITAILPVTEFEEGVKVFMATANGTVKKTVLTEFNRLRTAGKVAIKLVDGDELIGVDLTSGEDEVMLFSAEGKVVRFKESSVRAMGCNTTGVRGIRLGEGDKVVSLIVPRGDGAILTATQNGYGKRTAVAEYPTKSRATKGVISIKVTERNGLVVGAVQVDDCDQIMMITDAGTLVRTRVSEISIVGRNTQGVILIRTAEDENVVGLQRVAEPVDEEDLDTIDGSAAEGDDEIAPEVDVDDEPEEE

Turning to `COc1ccc2nccc(-n3cc4c(n3)CCC(NCCOc3cc(F)cc(F)c3)C4)c2n1` (centres unmarked) [Example 134, [2-(3,5-Difluoro-phenoxy)-ethyl]-[2-(6-methoxy-[1,5]naphthyridin-4-yl)-4,5,6,7-tetrahydro-2H-indazol-5-yl]-amine], the MIC in the assay on E. coli ATCC25922 (setting [2]) was greater than 16 µg/mL; with S. aureus ATCC13709 (setting [3]) it was 1 µg/mL (≈ 2.21 µM); with S. pneumoniae ATCC49619 (setting [4]), 4 µg/mL (≈ 8.86 µM); in the assay with CipR MRSA OC4222 (CipR MRSA OC4222) it was 0.5 µg/mL (≈ 1.11 µM).
For `CCOC(=O)c1cc2c(cc1C(=O)NC1CCc3nn(-c4ccnc5ccc(OC)nc45)cc3C1)NC(=O)CS2` (centres unmarked) [Example 137, 6-[2-(6-Methoxy-[1,5]naphthyridin-4-yl)-4,5,6,7-tetrahydro-2H-indazol-5-ylcarbamoyl]-3-oxo-3,4-dihydro-2H-benzo[1,4]thiazine-7-carboxylic acid ethyl ester], the MIC in the assay on E. coli ATCC25922 (setting [2]) was greater than 16 µg/mL; in the assay on S. aureus ATCC13709 (setting [3]), 0.5 µg/mL (≈ 0.895 µM); in the assay with S. pneumoniae ATCC49619 (setting [4]) it was greater than 16 µg/mL; with CipR MRSA OC4222 (CipR MRSA OC4222) it was 0.5 µg/mL (≈ 0.895 µM).
Turning to `COc1ccc2nccc(-n3cc4c(n3)CCC(NC(=O)c3cc5c(cc3C(=O)O)SCC(=O)N5)C4)c2n1` (centres unmarked) [Example 138, 6-[2-(6-Methoxy-[1,5]naphthyridin-4-yl)-4,5,6,7-tetrahydro-2H-indazol-5-ylcarbamoyl]-3-oxo-3,4-dihydro-2H-benzo[1,4]thiazine-7-carboxylic acid], the minimum inhibitory concentration (MIC) with E. coli ATCC25922 (setting [2]) is greater than 16 µg/mL; in the assay on S. aureus ATCC13709 (setting [3]), 0.5 µg/mL (≈ 0.942 µM); with S. pneumoniae ATCC49619 (setting [4]) it was 16 µg/mL (≈ 30.2 µM); in the assay with CipR MRSA OC4222 (CipR MRSA OC4222) it was 0.5 µg/mL (≈ 0.942 µM).
Consider `COc1ccc2nccc(-n3cc4c(n3)CCC(NC(=O)c3cc5c(cc3C(=O)O)SCC(=O)N5)C4)c2c1` (centres unmarked) [Example 136, 6-[2-(6-Methoxy-quinolin-4-yl)-4,5,6,7-tetrahydro-2H-indazol-5-ylcarbamoyl]-3-oxo-3,4-dihydro-2H-benzo[1,4]thiazine-7-carboxylic acid, potassium salt], for which the MIC is greater than 16 µg/mL in the assay on E. coli ATCC25922 (ATCC25922, read-out: E. coli MIC, data marked (*)); 1 µg/mL in the assay on S. aureus ATCC13709 (Staphylococcus aureus, ATCC13709, read-out: S. aureus ATCC13709 MIC); greater than 16 µg/mL in the assay with S. pneumoniae ATCC49619 (Streptococcus pneumoniae, ATCC49619, read-out: S. pneumoniae ATCC49619 MIC); 2 µg/mL with CipR MRSA OC4222 (MRSA).
Turning to `COc1ccc2nccc(-n3ncc4c3CCC(NC(=O)c3cc5c(cc3C)SCC(=O)N5)C4)c2c1` (centres unmarked) [Example 132, 7-Methyl-3-oxo-3,4-dihydro-2H-benzo[1,4]thiazine-6-carboxylic acid [1-(6-methoxy-quinolin-4-yl)-4,5,6,7-tetrahydro-1H-indazol-5-yl]-amide], the minimal inhibitory concentration (MIC) in the assay on E. coli ATCC25922 (setting [2]) was greater than 16 µg/mL; in the assay with S. aureus ATCC13709 (setting [3]), 2 µg/mL (≈ 4 µM); in the assay with S. pneumoniae ATCC49619 (setting [4]) it was greater than 16 µg/mL; in the assay on CipR MRSA OC4222 (CipR MRSA OC4222), 2 µg/mL (≈ 4 µM).
In the case of `CCOC(=O)c1cc2c(cc1C(=O)NC1CCc3nn(-c4ccnc5ccc(OC)cc45)cc3C1)NC(=O)CS2` (centres unmarked) [Example 135, 6-[2-(6-Methoxy-quinolin-4-yl)-4,5,6,7-tetrahydro-2H-indazol-5-ylcarbamoyl]-3-oxo-3,4-dihydro-2H-benzo[1,4]thiazine-7-carboxylic acid ethyl ester], the minimum inhibitory concentration (MIC) in the assay on E. coli ATCC25922 (setting [2]) is greater than 16 µg/mL; in the assay with S. aureus ATCC13709 (setting [3]), 2 µg/mL (≈ 3.59 µM); in the assay with S. pneumoniae ATCC49619 (setting [4]), greater than 16 µg/mL; with CipR MRSA OC4222 (CipR MRSA OC4222) it was 2 µg/mL (≈ 3.59 µM).
Consider `COc1ccc2nccc(-n3cc4c(n3)CCC(NC(=O)c3cc5c(cc3F)SCC(=O)N5)C4)c2n1` (centres unmarked) [Example 5, 7-Fluoro-3-oxo-3,4-dihydro-2H-benzo[1,4]thiazine-6-carboxylic acid [2-(6-methoxy-[1,5]naphthyridin-4-yl)-4,5,6,7-tetrahydro-2H-indazol-5-yl]-amide], for which the minimum inhibitory concentration (MIC) in [1] worked out at 128 µg/mL (≈ 254 µM); in the assay with S. aureus ATCC13709 (setting [3]) it was 0.25 µg/mL (≈ 0.495 µM); in the assay on S. pneumoniae ATCC49619 (setting [4]) it was 2 µg/mL (≈ 3.96 µM); with MSSA ATCC 29213, 0.031 µg/mL (≈ 0.0614 µM); with MSSA ATCC13709 (Smith), 0.25 µg/mL (≈ 0.495 µM); in the assay with CipR MRSA OC4159, 0.007 µg/mL (≈ 0.0139 µM). In addition, the MIC in the assay with CipR MRSA OC4222 (CipR MRSA OC4222) stood at 0.015 µg/mL (≈ 0.0297 µM); in the assay with CipR MRSA OC5273, 0.031 µg/mL (≈ 0.0614 µM); in the assay with MRSA OC2878, 0.031 µg/mL (≈ 0.0614 µM); with MRSA OC3726 (COL), 0.062 µg/mL (≈ 0.123 µM); in the assay on CipR MRSA OC3946, 0.007 µg/mL (≈ 0.0139 µM). In addition, the values for the IC50 at E. coli DNA gyrase and at E. coli topoisomerase IV were 238 nM and 248 nM, respectively.
Turning to `COc1ccc2nccc(-n3cc4c(n3)CCC(NC(=O)c3ccc5c(c3)NC(=O)C(C)(C)S5)C4)c2c1` (centres unmarked) [Example 129, 2,2-Dimethyl-3-oxo-3,4-dihydro-2H-benzo[1,4]thiazine-6-carboxylic acid [2-(6-methoxy-quinolin-4-yl)-4,5,6,7-tetrahydro-2H-indazol-5-yl]-amide], the minimal inhibitory concentration (MIC) was greater than 16 µg/mL in the assay on E. coli ATCC25922 (setting [2]), 1 µg/mL (≈ 1.95 µM) in the assay on S. aureus ATCC13709 (setting [3]), 4 µg/mL (≈ 7.79 µM) in the assay on S. pneumoniae ATCC49619 (setting [4]) and 1 µg/mL (≈ 1.95 µM) in the assay with CipR MRSA OC4222 (CipR MRSA OC4222).
As to `COc1ccc2nccc(-n3cc4c(n3)CCC(NCc3cc5c(cc3F)SCCN5)C4)c2n1` (centres unmarked) [Example 107, (7-Fluoro-3,4-dihydro-2H-benzo[1,4]thiazin-6-ylmethyl)-[2-(6-methoxy-[1,5]naphthyridin-4-yl)-4,5,6,7-tetrahydro-2H-indazol-5-yl]-amine], the MIC in the assay with E. coli ATCC25922 (setting [2]) is 8 µg/mL (≈ 16.8 µM); with S. aureus ATCC13709 (setting [3]) it was 0.25 µg/mL (≈ 0.525 µM); in the assay on S. pneumoniae ATCC49619 (setting [4]), 2 µg/mL (≈ 4.2 µM); in the assay on CipR MRSA OC4222 (CipR MRSA OC4222), 0.5 µg/mL (≈ 1.05 µM).
Regarding `COc1ccc2nccc(-n3cc4c(n3)CCC(NC(=O)c3cc5c(cc3OC)SCC(=O)N5)C4)c2n1` (centres unmarked) [Example 130, 7-Methoxy-3-oxo-3,4-dihydro-2H-benzo[1,4]thiazine-6-carboxylic acid [2-(6-methoxy-[1,5]naphthyridin-4-yl)-4,5,6,7-tetrahydro-2H-indazol-5-yl]-amide], the MIC in the assay with E. coli ATCC25922 (setting [2]) was greater than 16 µg/mL; with S. aureus ATCC13709 (setting [3]) it was 2 µg/mL (≈ 3.87 µM); with S. pneumoniae ATCC49619 (setting [4]) it was 16 µg/mL (≈ 31 µM); in the assay on CipR MRSA OC4222 (CipR MRSA OC4222) it was 2 µg/mL (≈ 3.87 µM).
In the case of `COc1ccc2nccc(-n3cc4c(n3)CCC(NC(=O)c3cc5c(cc3C)SCC(=O)N5)C4)c2n1` (centres unmarked) [Example 133, 7-Methyl-3-oxo-3,4-dihydro-2H-benzo[1,4]thiazine-6-carboxylic acid [2-(6-methoxy-[1,5]naphthyridin-4-yl)-4,5,6,7-tetrahydro-2H-indazol-5-yl]-amide], the minimum inhibitory concentration (MIC) is greater than 16 µg/mL in the assay on E. coli ATCC25922 (setting [2]), 0.25 µg/mL (≈ 0.499 µM) with S. aureus ATCC13709 (setting [3]), greater than 16 µg/mL in the assay on S. pneumoniae ATCC49619 (setting [4]) and 0.25 µg/mL (≈ 0.499 µM) with CipR MRSA OC4222 (CipR MRSA OC4222).
